# Measurements published in article PMC2247230, “Synthesis of somatostatin by breast cancer cells and their inhibition by exogenous somatostatin and sandostatin” (British Journal of Cancer, 1989).
# Like-named read-outs stand apart in the source and are kept apart here.
# B1: prolactin (protein, UniProt P01236 29-227, looked up)
# Prolactin: LPICPGGAARCQVTLRDLFDRAVVLSHYIHNLSSEMFSEFDKRYTHGRGFITKAINSCHTSSLATPEDKEQAQQMNQKDFLSLIVSILRSWNEPLYHLVTEVRGMQEAPEAILSKAVEIEEQTKRLLEGMELIVSQVHPETKENEIYPVWSGLPSLQMADEESRLSAYYNLLHCLRRDSHKIDNYLKLLKCRIIHNNNC
# notes: substance tested for cross-reaction in the somatostatin RIA
# Tests used:
# [1] = system: MDA-MB-436 cells
# Text: (§1) Somatostatin is a neuroendocrine hormone which inhibits not only exocrine and endocrine secretion, but also mito- genesis. Somatostatin-synthesising cells have a widespread anatomical distribution, being found in regions of the central nervous system and gastrointestinal tract. […] There have been few studies of the presence of SLI in breast cancer specimens. […] Inhibition of tumour growth may be indirect, through inhibition of endocrine secretion. […] Correspondence: J. Nelson. Received 5 October 1988, and in revised form, 9 January 1989. Materials and methods Tissue culture All media and fetal calf serum (FCS) were obtained from Flow Laboratories, Rickmansworth, UK. The same batch of serum was used throughout. […] Cell proliferation assays To assess the effects of somatostatin and Sandostatin, 5 x 10^4 cells were inoculated in 24-well tissue culture plates (Costar, Northumbria Biologicals Ltd, Cramlington, UK)- .After one day, plating efficiency was determined in a repre- sentative set of wells (cell counts, day 0) by trypsinisation and electronic cell counting (Coulter counter model ZBI, Coulter Electronics, Luton, UK). […] Thereafter cells were removed and counted at the times indicated.
# [2] = rat kidney homogenates, ref Pless et al., 1986, cited from earlier work
# Text: In the presence of fe ...
# [3] = read-out RIA
# [4] = system: Antiserum to somatostatin-14; experiment: Somatostatin radioimmunoassay, specificity (displacement of 125I-Tyr11 somatostatin-14); assay type: binding; settings: 20 h at 4 C, charcoal/dextran separation; for sensitivity of the RIA to the substance (displacement of label): triplicate
# [5] = system: ZR-75-1 cells; experiment: Cell proliferation assay (electronic cell counting), ZR-75-1; assay type: cell-based, human
# Text: Somatostatin is a neuroendocrine hormone which inhibits not only exocrine and endocrine secretion, but also mito- genesis. Somatostatin-synthesising cells have a widespread anatomical distribution, being found in regions of the central nervous system and gastrointestinal tract. […] There have been few studies of the presence of SLI in breast cancer specimens. […] Inhibition of tumour growth may be indirect, through inhibition of endocrine secretion. […] Correspondence: J. Nelson. Received 5 October 1988, and in revised form, 9 January 1989. Materials and methods Tissue culture All media and fetal calf serum (FCS) were obtained from Flow Laboratories, Rickmansworth, UK. The same batch of serum was used throughout. MCF-7 cells, a gift from Dr C.R. Green, Liverpool University, were routinely cultured in modified Eagle's mini- mal essential medium (MEM) supplemented with non- essential amino acids, sodium pyruvate (1 mM) and 5% v/v FCS. ZR-75-1 and MDA-MB-436 cells were obtained from the American Tissue Culture Collection. ZR-75-1 cells were cultured in RPMI 1640 medium containing 5% FCS. MDA- MB-436 cells were cultured in Liebowitz 15 medium contain- ing 10% FCS. All media contained Phenol Red and were supplemented with penicillin (1OOIUml-1) and streptomycin (100 ug ml- 1). Cell proliferation assays To assess the effects of somatostatin and Sandostatin, 5 x 10^4 cells were inoculated in 24-well tissue culture plates (Costar, Northumbria Biologicals Ltd, Cramlington, UK)- .After one day, plating efficiency was determined in a repre- sentative set of wells (cell counts, day 0) by trypsinisation and electronic cell counting (Coulter counter model ZBI, Coulter Electronics, Luton, UK). At this time medium was removed from remaining wells and replaced with fresh medium (control) or medium containing peptide (treatment) as indicated. Control and treatment media were either unchanged or changed daily during the course of the experi- ments, or control and treatment media were removed after one day exposure (i.e. from day 0 to day 1) and replaced by control medium. Thereafter cells were removed and counted at the times indicated.
# [6] = system: MCF-7 cells; experiment: Cell proliferation assay (electronic cell counting), MCF-7; assay type: cell-based, human; settings: 500 ng ml-1, 6 days continuous exposure without medium changes, MEM plus 5% FCS (Figure 4); mean of 3-5 wells
# Text: as §1
molecule,measurement,setting,value
C[C@H](N)C(=O)NCC(=O)N[C@H]1CSSC[C@@H](C(=O)O)NC(=O)[C@H](CO)NC(=O)[C@H]([C@@H](C)O)NC(=O)[C@H](Cc2ccccc2)NC(=O)[C@H]([C@@H](C)O)NC(=O)[C@H](CCCCN)NC(=O)[C@H](Cc2c[nH]c3ccccc23)NC(=O)[C@H](Cc2ccccc2)NC(=O)[C@H](Cc2ccccc2)NC(=O)[C@H](CC(N)=O)NC(=O)[C@H](CCCCN)NC1=O [somatostatin],cytotoxic effects in serum-free conditions,[1]; serum-free conditions (results not shown),no cytotoxic effects
same,remaining of starting levels after degradation,[2]; within 1 h,< 25%
same,"exogenous somatostatin remaining, as measured by RIA",[3]; after two days in 5% FCS with or without cells,undetectable
same,"exogenous somatostatin remaining, as measured by RIA","[3]; in the presence of 5% FCS alone (no cells), after one day incubation",< 50%
same,"exogenous somatostatin remaining, as measured by RIA","[3]; in the presence of cells and 5% FCS, RPMI 1640, ZR-75-1 cells, 500 ng ml-1, after one day incubation",< 20%
EGF,sensitivity of the RIA to the substance (displacement of label),"[4]; 1,000 fmol per tube",insensitive
Sandostatin,effect of one day exposure followed by return to control medium on cell proliferation,"[5]; 500 ng ml-1, 5% FCS, exposure day 0 to day 1, then control medium (Figures 1c, 2b)",much less effective in inhibiting cell proliferation than a continuous exposure
same,inhibition of ZR-75-1 cell proliferation compared with relevant control populations,"[5]; continuous exposure to single or repeated doses of 500 ng ml-1, in the presence of FCS, day 6 (Figures 1a, b and 2a)",> 3 fold
same,influence of insulin on the inhibitory effect,"[5]; in the presence of insulin, 5% FCS (results not shown)",not more pronounced in the presence of insulin
same,concentration giving consistent inhibition of growth,"[5]; range 10-500 ng ml-1 tested, without medium changes",500 ng/mL
same,lowest concentration at which inhibition was occasionally observed,"[5]; range 10-500 ng ml-1 tested, without medium changes, inhibition at low concentrations variable",25 ng ml -1
same,sensitivity of the RIA to the substance (displacement of label),[4]; 500 fmol per tube,insensitive
same,effect of continuous exposure on growth (final cell numbers),"[1]; 500 ng ml-1, 6 days continuous exposure without medium changes, L-15 plus 10% FCS (Figure 4), mean of 3-5 wells",inhibition of growth
same,degradation by homogenate,[2]; up to 20h,virtually unaffected
same,effect of continuous exposure on growth (final cell numbers),[6],inhibition of growth
bacitracin,sensitivity of the RIA to the substance (displacement of label),"[4]; 1,000 fmol per tube",insensitive
leupeptin,sensitivity of the RIA to the substance (displacement of label),"[4]; 2,000 fmol per tube",insensitive
somatostatin-28,displacement of label in the RIA,[4]; compared with somatostatin-14,displacement of label was found with somatostatin-28 at higher molarities
B1,sensitivity of the RIA to the substance (displacement of label),"[4]; 2,000 fmol per tube",insensitive
